Source: publication PMC8622278, “The Effects of Structural Alterations in the Polyamine and Amino Acid Moieties of Philanthotoxins on Nicotinic Acetylcholine Receptor Inhibition in the Locust, Schistocerca gregaria” (Molecules, 2021)
Several values for one entry are separate records, joined by “and”; a condition that tells them apart may be missing. Identical values can stand only once. Like-named read-outs stand apart in the source and are kept apart here.

Experiments:
locust neuron nAChR = test: Whole-cell patch-clamp of locust mushroom body neurons, ACh-evoked currents; format: cell-based, Schistocerca gregaria; details: for Cells in which potentiation of the ACh response was observed: co-application of 0.01 and 0.1 μM; for Fold increase in potency vs PhTX-343, 1 s current / Fold increase in potency vs PhTX-343, peak current: IC50 PhTX-343 / IC50 analogue
Procedure: Neuronal cells were harvested through dissection of adult desert locusts (Shistocerca gregaria) purchased from livefoods.com. Following 10 min of cold anaesthesia at 4 °C, the locusts were submerged in 70% ethanol and their heads removed by decapitation with dissection scissors. The front of the head capsule was removed to expose the mushroom body of the brain, which was extracted, cut into small pieces, and placed into a 1 mL Eppendorf tube with 200 μL of Rinaldi’s saline (135 mM NaCl, 25 mM KCl, 0.4 mM NaHCO3, 0.5 mM glucose, and 5 mM HEPES adjusted to pH 7.2 with NaOH) containing 0.5 mg/mL dispase and 2 mg/mL collagenase. After 15 min incubation at 36.5 °C, neurons were centrifuged at 800× g for 1 min at room temperature to form a pellet. The supernatant was removed and replaced with 200 μL locust culture medium (5:4 − DMEM + 10% FCS + 2 mM Gln: Schneider’s insect medium + 10 IU/mL penicillin + 20 μg/mL streptomycin). A total of 200 μL of culture medium was gently pipette-mixed with the pellet to create a suspension of cells, which were spread over poly-L-lysine-coated glass coverslips (5 × 20 mm) in 35 mm Petri dishes containing 2 mL locust culture medium. Petri dishes were incubated overnight at 36.5 °C in a 5% CO2 atmosphere.
Experiments were conducted 16–24 h after neuron dissociation. Coverslips covered in locust neurons were placed into a patch-clamp perfusion chamber, and were then constantly perfused with locust saline solution (180 mM NaCl, 10 mM KCl, 2 mM CaCl2, 10 mM HEPES, and pH 7.2 with NaOH). Borosilicate glass patch pipettes (1B150F-4, World Precision Instruments, Hertfordshire, UK), pulled to ~5–10 MΩ with a P-97 Flaming/Brown micropipette puller (Sutter Instrument Co., Novato, CA, USA), were filled with caesium pipette solution (140 mM CsCl, 1 mM CaCl2, 1 mM MgCl2, 11 mM EGTA, and 5 mM HEPES, pH 7.2) and placed in a patch pipette holder mounted on the patch-clamp amplifier head stage. Patch-clamped cells were clamped at a holding potential (VH) of −75 mV. Whole-cell currents were monitored by using an Axopatch 200A patch-clamp amplifier (Molecular Devices, San Jose, CA, USA) and recorded with WinWCP V4.5.7 software (Dr John Dempster, Institute of Pharmacy & Biomedical Sciences, University of Strathclyde, Glasgow, UK). Test compounds were focally applied to cells as 1 s pulses using a DAD-12 superfusion system (ALA Scientific Instruments, Farmingdale, NY, USA). Between each application of test compounds, clamped cells were washed for 1 min with locust saline. […]
A total of 100 μM acetylcholine (ACh) was applied to cells twice prior to (control) and once after the co-application of 100 μM ACh and PhTX analogue. Peak current and current after 1 s of application were measured using WinWCP, and then the percentage of control response values were generated by normalising responses to ACh + PhTX co-application to the ACh-only control response. GraphPad Prism 9 (GraphPad Software, San Diego, CA, USA) was used for data analysis, graph plotting, curve fitting, and statistical analysis. To estimate the ACh EC50, concentration–response data were fit by the Hill equation:(1) % maximum response=100/(1+10^(LogEC50−X)S) where X is the log of the ACh concentration and S is the Hill slope. Concentration–inhibition curves were generated by plotting the mean and standard error of the normalised current measurements against log antagonist concentration, and then IC50 values were estimated by fitting a non-linear regression curve by using the equation:(2) % control response=100/(1+10^(X−LogIC50)S) where X is the log of the concentration of the PhTX analogue and S is the Hill slope.

rat α4β2 nAChRs = details: rat subtype α4β2; cited from earlier work
rat α3β4 nAChRs = details: rat subtype α3β4; cited from earlier work
human muscle-type nAChRs = tested on: human muscle-type nAChRs; set-up: method as in PMID 16892364; details: cited from earlier work
[1] = at both 0.01 and 0.1 μM, cells showing potentiation, 100 μM ACh
[2] = inhibition of 100 μM ACh-evoked current after 1 s of activation, VH −75 mV, read-out: IC50 (95% CI), 1 s Current
[3] = inhibition of 100 μM ACh-evoked peak current, VH −75 mV, read-out: IC50 (95% CI), Peak Current

In the case of `CCCC(=O)N[C@@H](Cc1ccc(O)cc1)C(=O)NCCCNCCCCNCCCN` [PhTX-343, philanthotoxin-343, reference compound], the “Mean potentiation, % of the ACh control response, 1 s current” value (locust neuron nAChR; [1]) is reported as ~300%, the “Mean potentiation, % of the ACh control response, peak current” value (locust neuron nAChR; [1]) is reported as “around 200%” and the “Cells in which potentiation of the ACh response was observed” value (locust neuron nAChR) is reported as 8 out of 23. The IC50 (locust neuron nAChR; [2]) was 800 nM and the IC50 (locust neuron nAChR; [3]) was 39800 nM.
With `CN1CCC[C@H]1c1cccnc1` [nicotine, reference compound] the “Whole-cell current response compared with 100 μM ACh” value (locust neuron nAChR; 100 μM, same neuron) was “smaller than that seen for ACh”.
With `CCCC(=O)N[C@@H](CC1CCCCC1)C(=O)NCCCCCCCCCCCCN` [Cha-PhTX-12] the “Fold increase in potency vs PhTX-343, 1 s current” value (from here on “Fold increase … 1 s current”) (locust neuron nAChR) was 471 fold, the “Fold increase in potency vs PhTX-343, peak current” value (“Fold increase … peak current” below) (locust neuron nAChR) was > 5000 fold and the IC50 (locust neuron nAChR; at −75 mV (abstract; 1 s current), read-out: IC50) was 1.71 nM. The IC50 (locust neuron nAChR; [2]) was 1.7 nM and the IC50 (locust neuron nAChR; [3]) was 7.5 nM.
With `CCCC(=O)N[C@@H](Cc1ccc(O)cc1)C(=O)NCCCCCCCCCCCCN` [PhTX-12] the “Fold increase … 1 s current” value (locust neuron nAChR) was 6.2 fold and ~ 6 fold, the “Fold increase … peak current” value (locust neuron nAChR) was 34 fold and the IC50 (locust neuron nAChR; [2]) was 130 nM. For the same compound, the IC50 (locust neuron nAChR; [3]) was 1170 nM.
With `CCCC(=O)N[C@@H](CC1CCCCC1)C(=O)NCCCNCCCCNCCCN` [Cha-PhTX-343] the “Potentiation, % of the ACh control response, peak and 1 s current similar” value (locust neuron nAChR; 0.01 μM, cells showing potentiation, 100 μM ACh) was “about 145%”, the “Potentiation, % of the ACh control response, peak and 1 s current similar” value (locust neuron nAChR; 0.1 μM, cells showing potentiation, 100 μM ACh) was ~125% and the “Fold increase … 1 s current” value (locust neuron nAChR) was 1.8 fold. The “Fold increase … peak current” value (locust neuron nAChR) was 23 fold, the “Cells in which potentiation of the ACh response was observed” value (locust neuron nAChR) was 12 out of 22 and the IC50 (locust neuron nAChR; [2]) was 440 nM. The IC50 (locust neuron nAChR; [3]) was 1750 nM, the IC50 (rat α4β2 nAChRs) was “low nanomolar range” and the IC50 (rat α3β4 nAChRs) was “low nanomolar range”. The “Times more potent than PhTX-12” value (human muscle-type nAChRs) was > 10 times and the “Times more potent than PhTX-343” value (human muscle-type nAChRs) was > 100 times.
In the case of `CC(=O)OCC[N+](C)(C)C` [ACh, acetylcholine], the EC50 (locust neuron nAChR; peak response, n = 11, read-out: EC50 of ACh-evoked whole-cell current) is reported as 20.3 µM.
With `COc1cc2c3cc1Oc1cc(ccc1O)C[C@@H]1c4c(cc(OC)c(O)c4Oc4ccc(cc4)C[C@@H]3N(C)CC2)CC[N+]1(C)C` [d-tubocurarine, reference compound] the IC50 (locust neuron nAChR; co-applied 0.1 to 100 μM with 100 μM ACh, n = 11, read-out: IC50 for inhibition of 100 μM ACh current) was 2730 nM and the “Inhibition at the highest concentration” value (locust neuron nAChR; highest concentration (100 μM) co-applied with 100 μM ACh) was “complete inhibition”.
